Source: patent US20130012432A1, “Peptides for Treatment of Obesity” (Novo Nordisk A/S, priority 2010, published 2013)
In brackets after ≈: the same amount, converted by molar mass. Positions of bridges follow the written chain, without caps; N, C: chain ends. Non-standard residues stand in square brackets, D forms with d. Residues, ends and D or L forms follow the SMILES beside them. Groups on a side chain read outwards from the residue. *: point of attachment. Palmitoyl(16-(5-tetrazolyl)) = O=C(CCCCCCCCCCCCCCCc1nnn[nH]1)*; Lys(CH2CO2H)2 = N[C@@H](CCCCN(CC(=O)O)CC(=O)O)C(=O)O; C18 diacid = O=C(O)CCCCCCCCCCCCCCCCC(=O)*; C17 diacid = O=C(O)CCCCCCCCCCCCCCCC(=O)*; Hyp = O=C(O)[C@@H]1C[C@@H](O)CN1; Orn = NCCC[C@H](N)C(=O)O; Dap = NC[C@H](N)C(=O)O; AEEA = NCCOCCOCC(=O)O

Tests used:
[1] = molecular target: MC1 receptor (Homo sapiens, UniProt Q01726); experiment: biochemical
Chain of MC1 receptor (Q01726 whole entry): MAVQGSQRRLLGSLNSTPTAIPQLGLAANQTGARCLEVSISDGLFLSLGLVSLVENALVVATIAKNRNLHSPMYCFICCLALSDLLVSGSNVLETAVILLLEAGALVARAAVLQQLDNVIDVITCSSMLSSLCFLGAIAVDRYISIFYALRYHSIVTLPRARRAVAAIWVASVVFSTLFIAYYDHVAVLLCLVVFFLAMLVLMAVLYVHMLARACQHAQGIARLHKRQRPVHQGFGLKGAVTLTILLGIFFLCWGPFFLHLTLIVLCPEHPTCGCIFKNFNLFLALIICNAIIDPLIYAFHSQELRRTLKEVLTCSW
Procedure, shortened: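 Radioligand competition on membranes (25 μg/ml) of BHK cells stably expressing MC1, with 22 pM final 125I-NDP-α-MSH in 25 mM HEPES pH 7.4, Ca/Mg, EDTA, 0.1% HSA (or ovalbumin), 0.005% Tween 20. Incubated 90 min at 30 °C, filtered over PEI-treated GF/B; curves fitted by non-linear regression.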

[2] = physchem
Protocol: From a stock solution in vehicle, either H2O or 10 mM phosphate, containing 1 mg (as weighed) compound per ml, 8-11 aliquots are withdrawn and pH-adjusted individually with HCl/NaOH, to cover the whole pH range.

[3] = molecular target: human MC4 receptor (Homo sapiens, UniProt P32245); experiment: biochemical
Chain of human MC4 receptor (P32245 whole entry): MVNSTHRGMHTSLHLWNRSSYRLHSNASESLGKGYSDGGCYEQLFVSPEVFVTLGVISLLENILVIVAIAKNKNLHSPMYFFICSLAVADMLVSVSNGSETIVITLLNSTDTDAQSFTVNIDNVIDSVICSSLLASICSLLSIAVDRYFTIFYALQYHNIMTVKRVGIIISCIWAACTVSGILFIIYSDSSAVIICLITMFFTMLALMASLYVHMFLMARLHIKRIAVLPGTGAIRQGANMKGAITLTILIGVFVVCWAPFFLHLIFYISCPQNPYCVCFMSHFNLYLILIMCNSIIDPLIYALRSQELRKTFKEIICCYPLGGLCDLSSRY
Protocol: Assay (V)—Melanocortin Receptor 4 (MC4) Binding Assay
In Vitro ^125NDP-α-MSH Binding to Recombinant BHK Cells Expressing Human MC4 Receptor (Filtration Assay).
The assay was performed in 5 ml minisorb vials (Sarstedt No. 55.526) or in 96-well filter-plates (Millipore MADVN 6550), and using BHK cells expressing the human MC4 receptor using BHK cells stably expressing the human MC4 receptor. The membranes were prepared from frozen or fresh cells that were homogenized in 20 mM HEPES pH 7.1, 5 mM MgCl2 and 1 mg/ml bacitracin and centrifuged at 15000 rpm at 4° C., 10 min in a Sorvall RC 5B plus, SS-34 rotor. The supernatant was discarded, and the pellets were re-suspended in buffer, homogenized and centrifuged two more times. The final pellets were resuspended in the buffer mentioned above, and the protein concentration was measured and adjusted with buffer to 14 to 17 mg/ml and the membrane preparation were kept at −80° C. until assay. The assay was run directly on a dilution of this cell membrane suspension, without any further preparation. The BHK cell membranes are kept at −80° C. until assay, and the assay is run directly on a dilution of this cell membrane suspension, without further preparation. The suspension is diluted to give maximally 10% specific binding, i.e. to approx. 50-100 fold dilution. The assay was performed in a total volume of 200 μl: 50 μl of cell suspension, 50 μl of ^125NDP-α-MSH (≈79 pM in final concentration), 50 μl of test compound and 50 μl binding buffer (pH 7) mixed and incubated for 2 h at 25° C. [binding buffer: 25 mM HEPES, pH 7.0, 1 mM CaCl2, 1 mM MgSO4, 1 mM EGTA, 0.02% Bacitracin, 0.005% Tween™ 20 and 0.1% HSA or, alternatively, 0.1% ovalbumin (Sigma; catalogue No. A-5503)]. Test compounds were dissolved in DMSO and diluted in binding buffer. Radiolabelled ligand and membranes were diluted in binding buffer. The incubation was stopped by dilution with 2×100 μl ice-cold 0.9% NaCl. The radioactivity retained on the filters was counted using a Cobra II auto gamma counter.
The data were analysed by non-linear regression analysis of binding curves, using the Windows™ program GraphPad™ Prism (GraphPad Software, USA).

| Structure (SMILES) | Ki [1] [nM] | solubility ([2]; pH 6.6, Solubility Conc.) [µM] | solubility ([2]; pH 6.9, Solubility Conc.) [µM] | solubility ([2]; pH 7.3, Solubility Conc.) [µM] | solubility ([2]; pH 7.4, Solubility Conc.) [µM] | solubility ([2]; pH 7.5, Solubility Conc.) [µM] | solubility ([2]; pH 7.7, Solubility Conc.) [µM] | solubility ([2]; pH 7.9, Solubility Conc.) [µM] | Ki [3] [nM] | also measured |
| --- | --- | --- | --- | --- | --- | --- | --- | --- | --- | --- |
| CC(=O)N[C@H]1CCC(=O)NC[C@@H](C(=O)N2C[C@H](O)C[C@H]2C(=O)N2C[C@H](O)C[C@H]2C(=O)N[C@@H](CCCNC(=N)N)C(=O)N[C@@H](CC(=O)O)C(=O)N[C@@H](CCCCN(CC(=O)O)CC(=O)O)C(=O)N[C@@H](CCCCNC(=O)COCCOCCNC(=O)CCCCCCCCCCCCCCCc2nnn[nH]2)C(N)=O)NC(=O)[C@H](Cc2c[nH]c3ccccc23)NC(=O)[C@H](CCCNC(=N)N)NC(=O)[C@@H](Cc2ccccc2)NC(=O)[C@H](Cc2c[nH]cn2)NC1=O [Example 31, Ac-c[Glu-His-D-Phe-Arg-Trp-Dap]-Hyp-Hyp-Arg-Asp-Lys(biscarboxymethyl)-Lys[(2-{2-[16-(tetrazol-5-yl)hexadecanoylamino]ethoxy}ethoxy)acetyl]-NH2] (Ac-EH[dF]RW[Dap][Hyp][Hyp]RD[Lys(CH2CO2H)2]K([AEEA-Palmitoyl(16-(5-tetrazolyl))])-NH2; lactam 1-6) | > 10000 | 36 (≈ 79.4 µg/mL) | 61 (≈ 134 µg/mL) | 96 (≈ 212 µg/mL) | 228 (≈ 503 µg/mL) | 440 (≈ 970 µg/mL) | 495 (≈ 1090 µg/mL) | 529 (≈ 1170 µg/mL) | 17 | solubility ([2]; pH 8.1, Solubility Conc.): 472 µM (≈ 1040 µg/mL) |
| CC(=O)N[C@H]1CC(=O)NCCCC[C@@H](C(=O)N2CCC[C@H]2C(=O)N2CCC[C@H]2C(=O)N[C@@H](CCCNC(=N)N)C(=O)N[C@@H](CC(=O)O)C(=O)N[C@@H](CCCCN(CC(=O)O)CC(=O)O)C(=O)N[C@@H](CCCCNC(=O)COCCOCCNC(=O)CCCCCCCCCCCCCCCc2nnn[nH]2)C(N)=O)NC(=O)[C@H](Cc2c[nH]c3ccccc23)NC(=O)[C@H](CCCNC(=N)N)NC(=O)[C@@H](Cc2ccccc2)NC(=O)[C@H](Cc2c[nH]cn2)NC1=O [Example 35, Ac-c[Asp-His-D-Phe-Arg-Trp-Lys]-Pro-Pro-Arg-Asp-Lys(biscarboxymethyl)-Lys[(2-{2-[16-(tetrazol-5-yl)hexadecanoylamino]ethoxy}ethoxy)acetyl]-NH2] (Ac-DH[dF]RWKPPRD[Lys(CH2CO2H)2]K([AEEA-Palmitoyl(16-(5-tetrazolyl))])-NH2; lactam 1-6) | – | – | – | 211 (≈ 464 µg/mL) | 425 (≈ 935 µg/mL) | 526 (≈ 1160 µg/mL) | 537 (≈ 1180 µg/mL) | 572 (≈ 1260 µg/mL) | 13 | solubility ([2]; pH 6.4, Solubility Conc.): 24 µM (≈ 52.8 µg/mL); solubility ([2]; pH 6.8, Solubility Conc.): 44 µM (≈ 96.8 µg/mL); solubility ([2]; pH 7.2, Solubility Conc.): 126 µM (≈ 277 µg/mL) |
| CC(=O)N[C@H]1CCC(=O)NCCC[C@@H](C(=O)N2CCC[C@H]2C(=O)N2CCC[C@H]2C(=O)N[C@@H](CCCNC(=N)N)C(=O)N[C@@H](CC(=O)O)C(=O)N[C@@H](CCCCN(CC(=O)O)CC(=O)O)C(=O)N[C@@H](CCCCNC(=O)COCCOCCNC(=O)CCCCCCCCCCCCCCCCC(=O)O)C(N)=O)NC(=O)[C@H](Cc2c[nH]c3ccccc23)NC(=O)[C@H](CCCNC(=N)N)NC(=O)[C@@H](Cc2ccccc2)NC(=O)[C@H](Cc2cnc[nH]2)NC1=O [Example 38, Ac-c[Glu-His-D-Phe-Arg-Trp-Orn]-Pro-Pro-Arg-Asp-Lys(biscarboxymethyl)-Lys({2-[2-(17-carboxyheptadecanoylamino)ethoxy]ethoxy}acetyl)-NH2] (Ac-EH[dF]RW[Orn]PPRD[Lys(CH2CO2H)2]K([AEEA-C18 diacid])-NH2; lactam 1-6) | – | – | – | – | 218 (≈ 478 µg/mL) | 282 (≈ 618 µg/mL) | 422 (≈ 924 µg/mL) | 430 (≈ 942 µg/mL) | 0.9 | solubility ([2]; pH 5.4, Solubility Conc.): 21 µM (≈ 46 µg/mL); solubility ([2]; pH 6.2, Solubility Conc.): 36 µM (≈ 78.9 µg/mL); solubility ([2]; pH 6.5, Solubility Conc.): 58 µM (≈ 127 µg/mL); solubility ([2]; pH 7, Solubility Conc.): 111 µM (≈ 243 µg/mL); solubility ([2]; pH 7.6, Solubility Conc.): 360 µM (≈ 789 µg/mL) |
| CC(=O)N[C@H]1CCCNC(=O)CC[C@@H](C(=O)N2CCC[C@H]2C(=O)N[C@@H](CO)C(=O)N[C@@H](CO)C(=O)N[C@@H](CO)C(=O)N[C@@H](CCC(=O)O)C(=O)N[C@@H](CCC(=O)O)C(=O)N[C@@H](CO)C(=O)N[C@@H](CO)C(=O)N[C@@H](CCCCNC(=O)COCCOCCNC(=O)CCCCCCCCCCCCCCCC(=O)O)C(N)=O)NC(=O)[C@H](Cc2c[nH]c3ccccc23)NC(=O)[C@H](CCCNC(=N)N)NC(=O)[C@@H](Cc2ccccc2)NC(=O)[C@H](Cc2c[nH]cn2)NC1=O [Example 39] (Ac-[Orn]H[dF]RWEPSSSEESSK([AEEA-C17 diacid])-NH2; lactam 1-6) | > 10000 | 403 (≈ 910 µg/mL) | 397 (≈ 896 µg/mL) | – | 448 (≈ 1010 µg/mL) | – | 426 (≈ 962 µg/mL) | – | 25 | solubility ([2]; pH 6.1, Solubility Conc.): 272 µM (≈ 614 µg/mL); solubility ([2]; pH 7.1, Solubility Conc.): 419 µM (≈ 946 µg/mL); solubility ([2]; pH 8, Solubility Conc.): 397 µM (≈ 896 µg/mL); solubility ([2]; pH 8.3, Solubility Conc.): 445 µM (≈ 1000 µg/mL) |
